# Like-named read-outs stand apart in the source and are kept apart here.
# Assays:
# [1] = Pharmacokinetic study in rats after intravenous and oral administration; assay type: in vivo, Sprague Dawley rats; parameters: AUC/Dose: unit not given here; settings: rat; for AUC(0-t) / clearance / MRT / half-life / Vd / Cmax / bioavailability: male, Sprague Dawley, plasma; for clearance: read-out: CL (time averaged total body clearance); for MRT: read-out: MRT (mean residence time) (converted); for Vd: read-out: Vd,ss (apparent volume of distribution at steady state); for Cmax: read-out: Cmax (maximum plasma concentration)
# Text: The validated LC-MS/MS method was successfully implemented to quantify LDD-2614 in Sprague Dawley rat plasma to perform a pharmacokinetic study on LDD-2614 in rats after oral and intravenous administration.
# Male Sprague Dawley rats (7–8 weeks, 230–250 g) were supplied from Samtaco (Osan, Korea) and were housed in cages before the experiments. All animal experiments were approved by the Dankook University’s Institutional Animal Care and Use Committee (approval no. DKU-19-029). All rats were kept in a light-controlled room maintained at a temperature of 23 ± 2 °C with 12 h light and dark cycles and a relative humidity of 50% ± 10%. The rats were given ad libitum access to standard food and water and acclimated to the environment for 7 days prior to the experiment.
# The rats were fasted for at least 12 h prior to the start of the experiments and freely supplied water. On the morning of the test, the rats were anaesthetized with a mixture of alfaxan and rompun (75:25, v/v). For oral administration studies, the carotid artery was cannulated using a polyethylene tube (PE 60, 0.76 mm i.d., 1.22 mm o.d., Becton Dickinson, Franklin Lakes, NJ, USA) for efficient blood sampling. For intravenous administration studies, the carotid artery and jugular veins were cannulated for blood sampling and drug administration, respectively. Each cannula was exteriorized to the dorsal side of the neck. Then, each rat was individually housed in a rat metabolism cage and allowed to move freely. A recovery time of 3–4 h from anesthesia was allowed before drug administration. The rats were randomly divided into six groups as follows: the first three groups were orally administered LDD-2614 (4 mL/kg dissolved in distilled water) using a gastric gavage tube at doses of 1, 5, and 20 mg/kg, and the remaining three groups were intravenously injected over 1 min with LDD-2614 (4 mL/kg dissolved in distilled water) at doses of 1, 5, and 20 mg/kg. Samples of approximately 0.2 mL of blood were immediately collected via the carotid artery at 0 (before administration), 5, 15, 30, 60, 90, 120, 180, 240, 360, 480, and 1440 min after oral and intravenous administration. For intravenous administration, a sampling time of 1 min after administration was also added, and the remaining times were the same. The blood samples were immediately centrifuged at 12,000 rpm for 5 min. Each plasma sample was transferred into a new microtube and stored at −80 °C until used for LC–MS/MS analysis.
# All data are expressed as mean ± standard deviation. The pharmacokinetic parameters were calculated using Phoenix WinNonlin 2.1 (Pharmasight, Mountain View, CA, USA). A noncompartmental model was used.
# [2] = Stability of LDD-2614 in rat plasma (freeze-thaw, long-term, short-term, autosampler); assay type: in vitro ADME; settings: for Measured Concentration: n = 5
# Experimental: Stability studies using three QC samples for freeze-thaw stability (three freeze-thaw cycles lasting 12 h each), long-term stability (sample stored at −80 °C and analyzed after 2 weeks), short-term temperature stability (samples kept at room temperature for 6 h), and post-preparation stability (12 h in autosampler) were evaluated. The measurements of the analytes were compared with those from newly prepared QC samples at the same concentrations. The accuracy (RE) of all analytes ranged from −0.6% to 8.6% for the three freeze-thaw cycles, −5.5% to −2.6% for long-term stability, −3.6% to −0.1% for short-term stability, and −1.5% to 1.5% for post-preparation stability.
# Stability was evaluated with rat plasma at the four QC concentrations. Three freeze (−80 °C) and thaw (room temperature, 25 °C and stand for 2 h) cycles, long-term stability (−80 °C for 2 weeks), short-term stability (room temperature for 6 h), and post-extraction stability (12 h in the autosampler at 4 °C) were tested. The concentrations of the prepared stability samples were compared to the QC samples prepared on the day of analysis. The stability samples were considered stable if recovered within 15% compared to the QC sample concentration.
# [3] = test system: FLT3; parameters: method as in PMID 32272419; settings: in vitro assays, previous studies; cited from earlier work
# [4] = test system: MV4-11 cells; parameters: method as in PMID 32272419; settings: AML line of MV4-11 cells, previous studies; cited from earlier work
# [5] = test system: MV4-11 xenograft; parameters: method as in PMID 32272419; settings: MV4-11 xenograft animal model, previous studies; cited from earlier work
# [6] = extracted rat plasma, autosampler 4 °C 12 h, nominal 0.3 ng/mL
# [7] = extracted rat plasma, autosampler 4 °C 12 h, nominal 150 ng/mL
# [8] = extracted rat plasma, autosampler 4 °C 12 h, nominal 400 ng/mL
# [9] = rat plasma, long-term −80 °C 2 weeks, nominal 0.3 ng/mL
# [10] = rat plasma, long-term −80 °C 2 weeks, nominal 150 ng/mL
# [11] = rat plasma, long-term −80 °C 2 weeks, nominal 400 ng/mL
# [12] = rat plasma, short-term room temp 6 h, nominal 0.3 ng/mL
# [13] = rat plasma, short-term room temp 6 h, nominal 150 ng/mL
# [14] = rat plasma, short-term room temp 6 h, nominal 400 ng/mL
# [15] = rat plasma, three freeze-thaw cycles, nominal 0.3 ng/mL
# [16] = rat plasma, three freeze-thaw cycles, nominal 150 ng/mL
# [17] = rat plasma, three freeze-thaw cycles, nominal 400 ng/mL
compound,measurement,setting,value
O=C1Nc2ccc(F)cc2C1=C1Nc2ccc(F)cc2C1=NOCCN1CCNCC1 [LDD-2614],AUC(0-t),"[1]; intravenous, 1 mg/kg, n = 7, mean ± SD",635 ng·h/mL
same,clearance,"[1]; intravenous, 1 mg/kg",30.7 ± 13.6 mL/min/kg
same,MRT,"[1]; intravenous, 1 mg/kg",4.53 h
same,half-life,"[1]; intravenous, 1 mg/kg, read-out: T1/2 (terminal half-life)",4.91 ± 0.542 h
same,Vd,"[1]; intravenous, 1 mg/kg",9.62 ± 3.38 L/kg
same,AUC(0-t),"[1]; intravenous, 5 mg/kg, n = 5, mean ± SD",3510 ng·h/mL
same,clearance,"[1]; intravenous, 5 mg/kg",20.8 ± 8.4 mL/min/kg
same,MRT,"[1]; intravenous, 5 mg/kg",4.76 h
same,half-life,"[1]; intravenous, 5 mg/kg, read-out: T1/2 (terminal half-life)",3.31 ± 0.575 h
same,Vd,"[1]; intravenous, 5 mg/kg",6.42 ± 2.44 L/kg
same,AUC(0-t),"[1]; intravenous, 20 mg/kg, n = 6, mean ± SD",14400 ng·h/mL
same,clearance,"[1]; intravenous, 20 mg/kg",23.2 ± 3.7 mL/min/kg
same,MRT,"[1]; intravenous, 20 mg/kg",5.88 h
same,half-life,"[1]; intravenous, 20 mg/kg, read-out: T1/2 (terminal half-life)",3.38 ± 0.778 h
same,Vd,"[1]; intravenous, 20 mg/kg",8.67 ± 2.08 L/kg
same,half-life,"[1]; intravenous, dose range 1–20 mg/kg, terminal phase, read-out: half-life (T1/2)",3 to 4 h
same,AUC(0-t),"[1]; oral, 1 mg/kg, n = 6, mean ± SD",73.8 ng·h/mL
same,Cmax,"[1]; oral, 1 mg/kg",5.96 ± 1.77 ng/mL
same,bioavailability,"[1]; oral, 1 mg/kg, read-out: F (bioavailability)",11.7%
same,AUC(0-t),"[1]; oral, 5 mg/kg, n = 6, mean ± SD",390 ng·h/mL
same,Cmax,"[1]; oral, 5 mg/kg",43.7 ± 8.2 ng/mL
same,bioavailability,"[1]; oral, 5 mg/kg, read-out: F (bioavailability)",11.1%
same,AUC(0-t),"[1]; oral, 20 mg/kg, n = 5, mean ± SD",1020 ng·h/mL
same,Cmax,"[1]; oral, 20 mg/kg",120 ± 33.4 ng/mL
same,bioavailability,"[1]; oral, 20 mg/kg, read-out: F (bioavailability)",7.1%
same,bioavailability,"[1]; oral, doses 1–20 mg/kg, compared with intravenous AUClast, read-out: bioavailability after oral administration",7.1 to 11.7%
same,AUC/Dose,"[1]; intravenous, 1 mg/kg",38.1 ± 18.5
same,AUC/Dose,"[1]; intravenous, 5 mg/kg",42.1 ± 12.9
same,AUC/Dose,"[1]; intravenous, 20 mg/kg",43.2 ± 7.5
same,dose linearity of pharmacokinetics,"[1]; intravenous, dose range 1–20 mg/kg",linear pharmacokinetic characteristics were observed
same,AUC/Dose,"[1]; oral, 1 mg/kg",4.43 ± 0.39
same,AUC/Dose,"[1]; oral, 5 mg/kg",4.69 ± 3.05
same,AUC/Dose,"[1]; oral, 20 mg/kg",3.05 ± 1.24
same,increase in AUC,"[1]; oral, 20 mg/kg versus 5 mg/kg (four-fold increase in dose)",approximately 2.5 fold
same,Accuracy (RE),[2]; [6],−1.1%
same,Measured Concentration,[2]; [6],0.30 ± 0.03 ng/mL
same,Accuracy (RE),[2]; [7],−1.5%
same,Measured Concentration,[2]; [7],147.8 ± 2.98 ng/mL
same,Accuracy (RE),[2]; [8],1.5%
same,Measured Concentration,[2]; [8],410.2 ± 24.3 ng/mL
same,degradation under the different storage and analysis conditions,"[2]; rat plasma, freeze-thaw, long-term, short-term, post-preparation",no significant degradation observed
same,Accuracy (RE),[2]; [9],−4.8%
same,Measured Concentration,[2]; [9],0.29 ± 0.02 ng/mL
same,Accuracy (RE),[2]; [10],−2.6%
same,Measured Concentration,[2]; [10],146.1 ± 0.65 ng/mL
same,Accuracy (RE),[2]; [11],–5.5%
same,Measured Concentration,[2]; [11],378.1 ± 17.7 ng/mL
same,Accuracy (RE),[2]; [12],−0.1%
same,Measured Concentration,[2]; [12],0.30 ± 0.03 ng/mL
same,Accuracy (RE),[2]; [13],−3.6%
same,Measured Concentration,[2]; [13],144.6 ± 6.46 ng/mL
same,Accuracy (RE),[2]; [14],−1.2%
same,Measured Concentration,[2]; [14],395.1 ± 13.0 ng/mL
same,Accuracy (RE),[2]; [15],8.6%
same,Measured Concentration,[2]; [15],0.33 ± 0.02 ng/mL
same,Accuracy (RE),[2]; [16],−0.6%
same,Measured Concentration,[2]; [16],149.1 ± 1.31 ng/mL
same,Accuracy (RE),[2]; [17],−0.3%
same,Measured Concentration,[2]; [17],398.9 ± 6.04 ng/mL
same,FLT3 inhibition,[3],FLT3 inhibition
same,anti-proliferative activity,[4],anti-proliferative activity
same,in vivo antitumor activity,[5],significant in vivo antitumor activity

# From publication PMC7248905, “Development of UHPLC-MS/MS Method for Indirubin-3′-Oxime Derivative as a Novel FLT3 Inhibitor and Pharmacokinetic Study in Rats” (Molecules, 2020)
